From PubChem BioAssay (NCI)
“And” between values parts separate entries of the source, which are not always exact repeats. Equal values may be shown once.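 Step 1: Grow cells in 96-well plates. Step 2: Expose to compound for 48 hours at 5 concentrations. Step 3: Interpolate endpoints linearly; if unreached, use highest concentration. Abbreviation: GI50, concentration required for 50% inhibition of growth. TGI marks complete inhibition of growth.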

What was measured:
Assay in all cases: NCI-60 cell line screen, 48 h
[1] = system: 786-0 renal
[2] = system: COLO 205 colon
[3] = system: HOP-92 NSCLC
[4] = system: KM12 colon
[5] = system: MDA-MB-231 breast
[6] = system: MDA-MB-435
[7] = system: OVCAR-4 ovarian
[8] = system: OVCAR-5 ovarian
[9] = system: RXF 393 renal
[10] = system: SK-MEL-5 melanoma

Compound `Cc1ccc(S(=O)(=O)Oc2cc(N)c3c(n2)CCC3)cc1` has a TGI [1] of over 100 µM, a TGI [2] of over 100 µM and a TGI [3] of over 100 µM. The TGI [4] was over 100 µM, the TGI [5] was over 100 µM and the TGI [6] was over 100 µM. The TGI [7] was over 100 µM, the TGI [8] was over 100 µM and the TGI [9] was over 100 µM. For the same compound, the TGI [10] was over 100 µM.

With `C=C1C(O)C2(O)OCC34C(CC5C(C)=CC(=O)C(O)C5(C)C23)OC(=O)C(OC(=O)C/C=C(\C)CCCCC)C14` (stereo not given) the TGI [1] was 0.00681 µM and 0.0244 µM, the GI50 [2] was 0.00123 µM and the TGI [2] was 0.00812 µM and 0.0206 µM and 0.0272 µM. For the same compound, the GI50 [3] was 0.00157 µM, the TGI [3] was 0.00664 µM and 0.0195 µM and 0.0234 µM and the GI50 [4] was under 0.001 µM. For the same compound, the TGI [4] was 0.0201 µM and 0.019 µM and 0.0342 µM, the GI50 [5] was 0.0302 µM and the TGI [5] was 0.0218 µM and 0.162 µM. For the same compound, the TGI [6] was 0.00221 µM, the GI50 [7] was under 0.001 µM and the GI50 [8] was 0.0022 µM. For the same compound, the GI50 [9] was under 0.001 µM, the TGI [9] was 0.00351 µM and 0.0245 µM and the GI50 [10] was under 0.001 µM. The TGI [10] was under 0.001 µM.

`COc1ccc(N2C(=O)c3c4c(c5c([nH]c6ncccc65)c3C2=O)CCC(C(C)(C)C)C4)cc1` (stereo not given) gave a TGI [1] of over 100 µM, a TGI [2] of over 100 µM and a TGI [4] of over 100 µM. For the same compound, the TGI [5] was over 100 µM, the TGI [6] was over 100 µM and the TGI [7] was over 100 µM. It also gave a TGI [9] of over 100 µM and a TGI [10] of over 100 µM.

With `COc1cc(/C=C/C(=O)O)ccc1C(=O)O/C=C/c1ccccc1` the TGI [2] was over 100 µM, the TGI [3] was over 100 µM and the TGI [4] was over 100 µM. The TGI [7] was over 100 µM, the TGI [8] was over 100 µM and the TGI [9] was over 100 µM. It also gave a TGI [10] of over 100 µM.

In the case of `CC(C)(C)C1=Cc2cc3cc(C(C)(C)C)[nH]c(=O)c3cc2S(=O)(=O)N1`, the TGI [1] is reported as over 100 µM, the TGI [2] is reported as 39.9 µM and the TGI [3] is reported as 39.3 µM. The TGI [4] was 94.6 µM, the TGI [7] was over 100 µM and the TGI [8] was 92.5 µM.

`COc1ccc(CC(CO)NC(=O)OCc2ccccc2)cc1Oc1ccc(CC(CO)NC(=O)OCc2ccccc2)cc1` (stereo not given) gave a TGI [2] of 64.9 µM, a TGI [3] of 46.1 µM and a TGI [4] of 26.9 µM. The TGI [5] was 36 µM, the TGI [6] was over 100 µM and the TGI [7] was over 100 µM. It also gave a TGI [8] of 30.9 µM and a TGI [10] of over 100 µM.

`CCOP(=O)(OCC)C1C(CO)OC(n2ccc(=O)[nH]c2=O)C1O` (stereo not given) showed a TGI [1] of over 100 µM, a TGI [3] of over 100 µM and a TGI [4] of over 100 µM. For the same compound, the TGI [5] was over 100 µM, the TGI [7] was over 100 µM and the TGI [9] was over 100 µM. It also gave a TGI [10] of over 100 µM.

`CCN(CC)CCNc1ccc2nnn3c4ccc(OC)cc4c(=O)c1c23` showed a TGI [1] of 17.9 µM, a TGI [2] of 20.4 µM and a TGI [3] of 19.5 µM. The TGI [4] was 13.9 µM, the TGI [7] was 19.9 µM and the TGI [8] was 23.7 µM. It also gave a TGI [10] of 25.5 µM.

With `OC[C@@H](O)[C@H]1NC[C@@H](O)[C@H]1O` the TGI [1] was over 100 µM, the TGI [2] was over 100 µM and the TGI [3] was over 100 µM. The TGI [4] was over 100 µM, the TGI [6] was over 100 µM and the TGI [7] was over 100 µM. It also gave a TGI [8] of over 100 µM, a TGI [9] of over 100 µM and a TGI [10] of over 100 µM.

For `Oc1ccc(-c2nnc3sc(-c4ccc(F)cc4)nn23)cc1`, the GI50 [2] was 16.9 µM, the TGI [2] was 34.1 µM and the GI50 [3] was 46.1 µM. The TGI [3] was over 100 µM, the GI50 [4] was over 100 µM and the TGI [4] was over 100 µM. The GI50 [5] was 10.6 µM, the TGI [5] was 46.8 µM and the GI50 [6] was over 100 µM. For the same compound, the TGI [6] was over 100 µM, the GI50 [7] was over 100 µM and the TGI [7] was over 100 µM. The GI50 [8] was over 100 µM, the TGI [8] was over 100 µM and the GI50 [9] was 15.6 µM. It also gave a TGI [9] of 38.2 µM, a GI50 [10] of 70.4 µM and a TGI [10] of over 100 µM.

For `COC(=O)NN(C(=O)OC)c1c(-c2ccccc2)nc(SC)n1N`, the TGI [1] was over 100 µM, the TGI [2] was over 100 µM and the TGI [4] was over 100 µM. The TGI [5] was over 100 µM, the TGI [6] was over 100 µM and the TGI [7] was over 100 µM. For the same compound, the TGI [8] was over 100 µM, the TGI [9] was over 100 µM and the TGI [10] was over 100 µM.
